Test results published in patent US20050118129A1, “Gentle and enhanced preservative systems” (priority 2003, published 2005).

Legend:
[1] = system: Staphylococcus aureus (ATCC 6538); assay: Comparison of strength between saccharides, preservative efficacy against bacteria; type: cell-based
Description: (§1) The preservative efficacy of various saccharides and a cationic polysaccharide were tested against one bacteria, i.e., Staphylococcus aureus (ATCC 6538), and against one fungus, i.e., Aspergillus niger (ATCC 16404). Acceptance criteria for the bacteria established that the number of viable bacteria, recovered per ml, be reduced by not less than 3.0 logs at 14 days. After the rechallenge at day 14, the concentration of bacteria shall be reduced by at least 3.0 logs at day 28. Acceptance criteria for the fungus established that the number of viable yeasts and molds, recovered per ml, remain at or below the initial concentrations within an experimental error of ±0.5 logs within 14 days. After day 28, the concentration of mold and yeast shall remain at or below the concentrations after rechallenge within experimental error of ±0.5 logs. Results of the saccharide/cationic polysaccharide preservative efficacy test are set forth below in Table 1.

[2] = system: Aspergillus niger (ATCC 16404); assay: Comparison of strength between saccharides, preservative efficacy against fungus; type: cell-based
Description: as §1

Row | SMILES | Log Reduction of Staphylococcus aureus (ATCC 6538) at 28 Days (Bacteria) [1] | Log Reduction of Aspergillus niger (ATCC 16404) at 28 Days (Fungus) [2]
1 | O=C(CO)[C@@H](O[C@H]1O[C@H](CO)[C@@H](O)[C@H](O)[C@H]1O)[C@H](O)[C@H](O)CO [Turanose] | 1.4 Log | 2.1 Log
2 | O=C[C@H](O)[C@@H](O)[C@@H](O)[C@H](O)CO [Galactose] | 2.2 Log | 1.4 Log
3 | OC[C@@H](O)[C@@H](O)[C@H](O)[C@H](O)CO [Mannitol] | 2.0 Log | 2.4 Log
4 | CO[C@H]1O[C@H](CO)[C@@H](O)[C@H](O)[C@H]1O [Methyl-α-D-gluco-pyranoside] | 1.2 Log | 2.9 Log
5 | OC[C@H]1O[C@H](O[C@H]2O[C@H](CO)[C@@H](O)[C@H](O)[C@H]2O)[C@H](O)[C@@H](O)[C@@H]1O [Trehalose] | 1.3 Log | 2.0 Log
6 | CO[C@H]1O[C@H](CO)[C@@H](O)[C@H](O)[C@H]1O [Methyl-α-D-gluco-pyranose] | 1.7 Log | 1.6 Log
7 | O=C[C@H](O)[C@@H](O)[C@H](O)[C@H](O)CO [D-Glucose] | 1.9 Log | 3.7 Log
